A short description of data set [1]: Flowability: time for 100 g to flow through an 11-mm funnel orifice. The following applies: 100 g through an 11-mm orifice of a funnel. It is filed as physicochemical. On the procedure: The flowability was determined by the time needed to have 100 g of genistein crystals or genistein granules flowing through an 11-mm orifice of a funnel.
Data set [2] in a line: Granule size distribution by sieve analysis. It is filed as physicochemical.

As to `O=c1c(-c2ccc(O)cc2)coc2cc(O)cc(O)c12` [Genistein crystal, genistein], the Flowability entry in data set [1] is given as “No flow”. In data set [2] (sieve fraction <150 μm), the “Granule Particle Size Distribution <150 μm” value came to 7.2%. Besides, in data set [2] (sieve fraction >150 μm), the “Granule Particle Size Distribution >150 μm” value is 28.2%. The “Granule Particle Size Distribution >250 μm” value in data set [2] (sieve fraction >250 μm) turned out to be 50%. In addition, in data set [2] (sieve fraction >425 μm), the “Granule Particle Size Distribution >425 μm” value was found to be 14.5%. For the same molecule, in data set [2] (sieve fraction >600 μm), the “Granule Particle Size Distribution >600 μm” value worked out at 0%. Moreover, the “Granule Particle Size Distribution >800 μm” value in data set [2] (sieve fraction >800 μm) is 0%. Further, in data set [2] (sieve fraction >850 μm), the “Granule Particle Size Distribution >850 μm” value worked out at 0.1%.
